In patent US9040542B2, “Solid forms of gyrase inhibitor (R)-1-ethyl-3-[6-fluoro-5-[2-(1-hydroxy-1-methyl-ethyl)pryimidin-5-yl]-7-(tetrahydrofuran-2-yl)-1H-benzimidazol-2-yl]urea” (priority 2011, dated 2015):
Converted amounts (≈) assume the structure as drawn. “And” between values parts separate entries of the source, which are not always exact repeats. Equal values may be shown once.

Tests used:
[1] = test system: Staphylococcus aureus; test: MIC90 panel, Protocol #1 microdilution broth; format: cell-based; conditions: 67 isolates
[2] = test system: M. kansasii 303; test: MIC, Protocol #4 Mycobacterium species; format: cell-based
[3] = test system: Prevotella spp.; test: MIC90 panel, Protocol #3 agar dilution; format: cell-based; conditions: 13 isolates
[4] = test system: M. abscessus MC 5960; test: MIC, Protocol #4 Mycobacterium species; format: cell-based
[5] = test system: Staphylococcus aureus ATCC 29213; test: MIC, Protocol #1 microdilution broth; format: cell-based
[6] = test system: Enterococcus faecium; test: MIC90 panel, Protocol #1 microdilution broth; format: cell-based; conditions: 33 isolates
[7] = test system: M. tuberculosis Erdman ATCC 35801; test: Protocol #5 Mycobacterium tuberculosis Serum Shift MIC Assay; format: cell-based
[8] = test system: Bacillus cereus ATCC 10987; test: MIC, Protocol #1 microdilution broth; format: cell-based
[9] = test system: M. abscessus MC 6111; test: MIC, Protocol #4 Mycobacterium species; format: cell-based
[10] = test system: M. abscessus MC 5931; test: MIC, Protocol #4 Mycobacterium species; format: cell-based
[11] = test system: M. abscessus MC 6025; test: MIC, Protocol #4 Mycobacterium species; format: cell-based
[12] = test system: Nocardia caviae 2497; test: MIC, Protocol #4 Mycobacterium species; format: cell-based
Protocol: Protocol #4. MIC Determination Procedure for Mycobacterium Species
Inoculum Preparation for M. kansasii, M. avium, M. abscessus and Nocardia spc.: • 1. Used prepared frozen stock of culture or a fresh culture grown in 7H10 broth at a concentration of 10 Klett or 5×10^7/ml. • 2. Prepared a 1:20 dilution by removing 1.0 ml of the culture stock and added it to 19 ml of 7H10 broth (final concentration 2.5×10^6 cfu/ml). • 3. From this dilution prepared a 1:20 dilution, removed 1 ml and added it to 19 ml of fresh broth (final suspension).
Plate Preparation: • 1. Labeled plates. • 2. Added 50 μl of 7H10 broth +10% OADC to all wells being utilized for MIC determination using a multichannel electronic pipettor. • 3. Prepared stock solutions of drugs (e.g. 1 mg/ml concentration) to be tested. • 4. Thawed and diluted frozen stock solutions using 7H10 broth +10% OADC to obtain a working solution 4× the maximum concentration tested (e.g. final concentration 32 μg/ml, highest concentration tested was 8 μg/ml). Dilutions were made from the stock solution. To start at a concentration of 1 μg/ml, the drugs were prepared at 4 μg/ml, so the starting concentration was 1 μg/ml. Removed 25 μl of the 1 mg/ml stock and added to 6.2 ml of broth. All dilutions of drugs were done in broth. • 5. Added 50 μl of the 4× working solution to the first well of the designated row. […] Read visually and recorded the results.

[13] = test system: M. abscessus BB10; test: MIC, Protocol #4 Mycobacterium species; format: cell-based
[14] = test system: M. abscessus MC 6136; test: MIC, Protocol #4 Mycobacterium species; format: cell-based
[15] = test system: M. abscessus MC 5922; test: MIC, Protocol #4 Mycobacterium species; format: cell-based
[16] = test system: Mycobacterium avium 103; test: MIC, Protocol #4 Mycobacterium species; format: cell-based
[17] = test system: M. abscessus MC 6153; test: MIC, Protocol #4 Mycobacterium species; format: cell-based
[18] = test system: β-haemolytic streptococci (Groups A, B, C and G); test: MIC90 panel, Protocol #1 microdilution broth; format: cell-based; conditions: 28 isolates
[19] = test system: Clostridium difficile ATCC BAA-1382; test: MIC, Protocol #3 agar dilution; format: cell-based
[20] = test system: M. abscessus MC 6142; test: MIC, Protocol #4 Mycobacterium species; format: cell-based
[21] = test system: M. abscessus MC 5812; test: MIC, Protocol #4 Mycobacterium species; format: cell-based
[22] = test system: M. abscessus MC 5908; test: MIC, Protocol #4 Mycobacterium species; format: cell-based; conditions: in µg/mL
[23] = test system: M. abscessus MC 5901; test: MIC, Protocol #4 Mycobacterium species; format: cell-based
[24] = test system: Neisseria gonorrhoeae; test: MIC90 panel, Protocol #3 agar dilution; format: cell-based; conditions: 13 isolates
[25] = test system: M. abscessus BB6; test: MIC, Protocol #4 Mycobacterium species; format: cell-based
[26] = test system: Streptococcus pneumoniae; test: MIC90 panel, Protocol #1 microdilution broth; format: cell-based; conditions: 67 isolates
[27] = test system: Streptococcus pneumoniae ATCC 10015; test: MIC, Protocol #1 microdilution broth; format: cell-based; conditions: Streptococcus pneumoniae ATCC 10015, with Laked Horse Blood
[28] = test system: Staphlococcus epidermidis; test: MIC90 panel, Protocol #1 microdilution broth; format: cell-based, Staphylococcus epidermidis; conditions: 35 isolates

For `CCNC(=O)Nc1nc2cc(-c3cnc(C(C)(C)O)nc3)c(F)c([C@H]3CCCO3)c2[nH]1` [Compound 24, 1-ethyl-3-[6-fluoro-5-[2-(1-hydroxy-1-methyl-ethyl)pyrimidin-5-yl]-7-[(2R)-tetrahydrofuran-2-yl]-1H-benzimidazol-2-yl]urea], the MIC90 [1] was 0.03 µg/mL (≈ 0.07 µM), the “MIC Range” value [1] was 0.008 to 0.06 µg/mL and the MIC [2] was 0.03 µg/mL (≈ 0.07 µM). The MIC90 [3] was 16 µg/mL (≈ 37.3 µM), the “MIC Range” value [3] was 0.06 to 16 µg/mL and the MIC [4] was 0.5 µg/mL (≈ 1.17 µM). The MIC ([5]; Staphylococcus aureus ATCC 29213) was 0.021 µg/mL (≈ 0.049 µM), the MIC ([5]; Staphylococcus aureus ATCC 29213 with Human Serum) was 0.15 µg/mL (≈ 0.35 µM) and the MIC ([5]; Staphylococcus aureus ATCC 29213 with Mouse Serum) was 0.5 µg/mL (≈ 1.17 µM). For the same compound, the MIC ([5]; Staphylococcus aureus ATCC 29213 with Rat Serum) was 0.18 µg/mL (≈ 0.42 µM), the MIC90 [6] was 0.12 µg/mL (≈ 0.28 µM) and the “MIC Range” value [6] was 0.003 to 0.25 µg/mL. The MIC ([7]; M. tuberculosis Erdman ATCC 35801) was 0.03 µg/mL, the MIC ([7]; M. tuberculosis Erdman ATCC 35801 with Mouse Serum) was 0.5 µg/mL and the MIC [8] was 0.031 µg/mL (≈ 0.0724 µM). For the same compound, the MIC [9] was 0.5 µg/mL (≈ 1.17 µM), the MIC [10] was 0.5 µg/mL (≈ 1.17 µM) and the MIC [11] was 0.75 µg/mL (≈ 1.75 µM). The MIC [12] was 0.125 µg/mL (≈ 0.292 µM), the MIC [13] was 0.015 µg/mL (≈ 0.035 µM) and the MIC [14] was 0.5 µg/mL (≈ 1.17 µM). It also gave an MIC [15] of 0.25 µg/mL (≈ 0.583 µM), an MIC [16] of 0.18 µg/mL (≈ 0.42 µM) and an MIC [17] of 1 µg/mL (≈ 2.33 µM). The MIC90 [18] was 0.12 µg/mL (≈ 0.28 µM), the “MIC Range” value [18] was 0.015 to 0.12 µg/mL and the MIC [19] was 0.38 µg/mL (≈ 0.887 µM). For the same compound, the MIC [20] was 0.5 µg/mL (≈ 1.17 µM), the MIC [21] was 1 µg/mL (≈ 2.33 µM) and the MIC [22] was 1 and 1.5. For the same compound, the MIC [23] was 1 µg/mL (≈ 2.33 µM), the MIC90 [24] was 0.25 µg/mL (≈ 0.583 µM) and the “MIC Range” value [24] was 0.12 to 0.25 µg/mL. The MIC [25] was 0.5 µg/mL (≈ 1.17 µM), the MIC90 [26] was 0.015 µg/mL (≈ 0.035 µM) and the “MIC Range” value [26] was 0.008 to 0.03 µg/mL. The MIC [27] was 0.01 µg/mL (≈ 0.0233 µM), the “MIC Range” value [28] was 0.008 to 0.03 µg/mL and the MIC90 ([28]; Staphylococcus epidermidis) was 0.03 µg/mL (≈ 0.07 µM).
